Assay type in all cases: in vivo
For assay [1], the system named is CNS chloroleukemia (chloroleukemic cell line MIAC51). The experiment in a line: Treatment of CNS chloroleukemia in paraplegic Fischer 344 rats with CoQ10 IV (Example 1). The method, then:
(§1) A model of CNS chloroleukemia was created using Fischer 344 rats, in which chloroleukemic cells were injected into the rats as newborns and lipopolysaccharide (LPS) was given as a first-line of treatment. The cure rate with this regimen was approximately 50%, and approximately 10% of survivors developed CNS leukemia as judged by their motor skills and the presence of quadriplegia and paraplegia.
(§2) For this study, 2400 Fischer 344 neonates were injected with the chloroleukemic cell line MIAC51 and treated with LPS. All animals with overt signs of leukemia, i.e., systemic disease, were sacrificed by day 26. […] Of that cohort, 150 animals were selected with hind leg paraplegia on day 40, see FIGS. 1A and 1B. These animals were then re-randomized into 5 groups: group 1 received no treatment, group 2 received excipient control IV, group 3 received 5 mg/kg CoQ10 IV (i.e., 15 mg/kg/day), group 4 received 10 mg/kg IV (i.e., 30 mg/kg/day), and group 5 received 25 mg/kg IV (i.e., 75 mg/kg/day) for 4 weeks, 3 times daily.

Assay [2] deals with CNS chloroleukemia (metastatic, leukemic CNS tumors). As to the kind of experiment: Long term effect of CoQ10 on CNS chloroleukemia in paraplegic Fischer 344 rats (Example 2). The method, then:
FIG. 4: Long-term Effect of CoQ10 on CNS Leukemia. 300 paraplegic animals with overt CNS leukemia were randomized into two groups of 150 animals each: one received phosphate buffered saline (PBS) and the other group received 100 mg/kg CoQ10 once daily starting on day 1 through day 28 (first cycle). A second cycle of 100 mg/kg CoQ10 once daily started on day 35 and continued through day 62. Animals received two cycles of 28 days each of CoQ10. On days 173 and 195 as indicated by *, 5 animals were sacrificed for necropsy and pathology analysis.
The model of CNS chloroleukemia in Fischer 344 rats provided in Example 1 was used for long term studies of the treatment of metastatic, leukemic CNS tumors. As in Example 1 chloroleukemic cells were injected into the rats as newborns and lipopolysaccharide (LPS) was given as a first-line of treatment. The cure rate with this regimen was approximately 50%, and approximately 10% of survivors developed CNS leukemia as judged by their motor skills and the presence of quadriplegia and paraplegia.
For this study of long term effect of CoQ10 on CNS leukemia, 300 paraplegic animals with overt CNS leukemia were randomized into two groups of 150 animals each. Group one received a saline control. Group two received 100 mg/kg CoQ10 once daily starting on day 1 through day 28 (first cycle). The second cycle started on day 35 and continued through day 62. […]

Assay [3] has as its system chloroleukemic cells. The experiment in a line: First-line lipopolysaccharide treatment of chloroleukemia in Fischer 344 rats injected as newborns (model creation). As to the method:
as §1, §2

In the case of `COC1=C(OC)C(=O)C(C/C=C(\C)CC/C=C(\C)CC/C=C(\C)CC/C=C(\C)CC/C=C(\C)CC/C=C(\C)CC/C=C(\C)CC/C=C(\C)CC/C=C(\C)CCC=C(C)C)=C(C)C1=O` [CoQ10, Coenzyme Q10], the “signs of improvement (CNS abnormalities, motor skills)” value in assay [1] (5 mg/kg IV 3 times daily (15 mg/kg/day) for 4 weeks, group 3) is on record as “did not exhibit any signs of improvement”; in assay [1] (10 mg/kg IV 3 times daily (30 mg/kg/day) for 4 weeks, group 4), “did not exhibit any signs of improvement”. The “MRI for tumor cells” value in assay [1] (5 mg/kg IV 3 times daily (15 mg/kg/day), group 3) was “positive for tumor cells”; in assay [1] (10 mg/kg IV 3 times daily (30 mg/kg/day), group 4), “positive for tumor cells”; in assay [1] (25 mg/kg IV three times per day (75 mg/kg/day), group 5, FIGS. 3A and B), “lack of tumor cells”. For the same compound, the “recovery of motor skills / ability to walk” value in assay [1] (25 mg/kg IV three times per day (75 mg/kg/day) for 4 weeks, group 5) is “significant recovery of their motor skills and regained their ability to walk”; in assay [2] (100 mg/kg IV once daily, two cycles of 28 days (days 1-28 and 35-62)), “significant recovery of their motor skills and regained their ability to walk”. Also, the “mortality due to CNS tumors (mortality curves)” value in assay [1] (FIG. 2, animals treated with or without CoQ10, 5, 10, 25 mg/kg IV 3 times daily) was “decrease in mortality due to CNS tumors is observed in a dose-dependent manner”. The “necropsy and pathological analysis for chloroleukemia or CNS tumors” value in assay [2] (100 mg/kg CoQ10, five animals sacrificed on days 173 and 195) is reported as “No evidence of chloroleukemia or CNS tumors were found”.

In the case of “lipopolysaccharide [lipopolysaccharide (LPS)]”, in assay [3] (LPS as first-line treatment after injection of chloroleukemic cells into newborn rats), the cure rate entry was “approximately 50%”. For the same compound, in assay [3] (survivors of LPS first-line regimen), the “survivors that developed CNS leukemia (motor skills, quadriplegia and paraplegia)” value is given as “approximately 10%”.

Source of the values: patent publication US11452699B2, “Method of treating or preventing tumors of the central nervous system” (Berg LLC, priority 2011, dated 2022).
